From PMC12951562, “SH2scan: Mapping SH2 Domain-Ligand Binding Selectivity for Inhibitors and Degraders” (Journal of Medicinal Chemistry, 2026)
Non-standard residues stand in square brackets, D forms with d. Residues, ends and D or L forms follow the SMILES beside them. pY = N[C@@H](Cc1ccc(OP(=O)(O)O)cc1)C(=O)O

Legend:
Assay in all cases: biochemical
Type in all cases: binding
GRB2 = target: T1, GRB2 (Homo sapiens, UniProt P62993)
T1 construct: the DNA-tagged SH2 domain concentrations used in this study were <0.1 nM; made in house; host or cells: HEK293 (transient transfection; unpurified extract)
T1 sequence (P62993 60-152 limits assumed): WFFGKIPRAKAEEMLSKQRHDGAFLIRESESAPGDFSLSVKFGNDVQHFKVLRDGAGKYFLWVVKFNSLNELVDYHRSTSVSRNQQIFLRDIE

PTPN11(SH2dom.C-term.) = target: T2, PTPN11(SH2dom.C-term.) (Homo sapiens, UniProt Q06124)
T2 construct: SH2dom.C-term. denotes SH2 domain closest to C-terminus of protein; made in house; host or cells: HEK293 (transient transfection, unpurified extract)
T2 sequence (Q06124 112-216 limits assumed): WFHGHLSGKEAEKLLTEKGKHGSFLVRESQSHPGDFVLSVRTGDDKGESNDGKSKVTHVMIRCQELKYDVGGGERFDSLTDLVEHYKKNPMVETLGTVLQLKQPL

CBLB = target: T3, CBLB (Homo sapiens, UniProt Q13191)
T3 construct: the DNA-tagged SH2 domain concentrations used in this study were <0.1 nM; made in house; host or cells: HEK293 (transient transfection; unpurified extract)
T3 sequence (Q13191 241-343 limits assumed): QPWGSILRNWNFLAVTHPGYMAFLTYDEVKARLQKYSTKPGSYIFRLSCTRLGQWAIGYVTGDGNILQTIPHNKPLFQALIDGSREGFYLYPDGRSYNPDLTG

CBLC = target: T4, CBLC (Homo sapiens, UniProt Q9ULV8)
T4 construct: the DNA-tagged SH2 domain concentrations used in this study were <0.1 nM; made in house; host or cells: HEK293 (transient transfection; unpurified extract)
T4 sequence (Q9ULV8 219-321 limits assumed): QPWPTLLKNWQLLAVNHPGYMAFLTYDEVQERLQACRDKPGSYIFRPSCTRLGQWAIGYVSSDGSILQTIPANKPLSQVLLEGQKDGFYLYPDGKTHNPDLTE

GRAP = target: T5, GRAP (Homo sapiens, UniProt Q13588)
T5 construct: the DNA-tagged SH2 domain concentrations used in this study were <0.1 nM; made in house; host or cells: HEK293 (transient transfection; unpurified extract)
T5 sequence (Q13588 60-154 limits assumed): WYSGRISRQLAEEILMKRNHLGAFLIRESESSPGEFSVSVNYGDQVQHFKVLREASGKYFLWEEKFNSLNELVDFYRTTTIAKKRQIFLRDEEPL

SRMS = target: T6, SRMS (Homo sapiens, UniProt Q9H3Y6)
T6 construct: made in house; host or cells: HEK293 (transient transfection), unpurified extract
T6 sequence (Q9H3Y6 whole entry): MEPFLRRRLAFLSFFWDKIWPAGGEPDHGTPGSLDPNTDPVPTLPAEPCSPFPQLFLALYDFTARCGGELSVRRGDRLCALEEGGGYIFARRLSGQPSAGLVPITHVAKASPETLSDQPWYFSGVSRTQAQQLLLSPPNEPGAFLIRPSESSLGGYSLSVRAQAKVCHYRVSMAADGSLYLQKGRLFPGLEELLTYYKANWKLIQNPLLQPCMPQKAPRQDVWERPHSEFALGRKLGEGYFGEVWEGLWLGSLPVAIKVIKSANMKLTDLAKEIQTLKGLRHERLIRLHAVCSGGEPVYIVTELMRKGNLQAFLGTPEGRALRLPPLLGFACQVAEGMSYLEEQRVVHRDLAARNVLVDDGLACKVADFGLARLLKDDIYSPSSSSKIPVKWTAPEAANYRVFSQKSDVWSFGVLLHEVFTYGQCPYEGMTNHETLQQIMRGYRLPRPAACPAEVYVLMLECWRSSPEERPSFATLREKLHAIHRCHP

SH2D1B = target: T7, SH2D1B (Homo sapiens, UniProt O14796)
T7 construct: made in house; host or cells: HEK293 (transient transfection), unpurified extract
T7 sequence (O14796 1-132): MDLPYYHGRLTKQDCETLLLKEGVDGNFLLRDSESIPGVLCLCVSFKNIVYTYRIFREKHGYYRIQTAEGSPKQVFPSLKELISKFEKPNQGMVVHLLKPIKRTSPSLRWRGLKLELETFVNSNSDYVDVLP

LYN = target: T8, LYN (Homo sapiens, UniProt P07948)
T8 construct: the DNA-tagged SH2 domain concentrations used in this study were <0.1 nM; made in house; host or cells: HEK293 (transient transfection, unpurified extract)
T8 sequence (P07948 129-226 limits assumed): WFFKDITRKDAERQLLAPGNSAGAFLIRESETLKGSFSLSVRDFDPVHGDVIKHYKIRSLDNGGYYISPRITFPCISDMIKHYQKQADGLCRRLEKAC

FGR = target: T9, FGR (Homo sapiens, UniProt P09769)
T9 construct: the DNA-tagged SH2 domain concentrations used in this study were <0.1 nM; made in house; host or cells: HEK293 (transient transfection; unpurified extract)
T9 sequence (P09769 144-241 limits assumed): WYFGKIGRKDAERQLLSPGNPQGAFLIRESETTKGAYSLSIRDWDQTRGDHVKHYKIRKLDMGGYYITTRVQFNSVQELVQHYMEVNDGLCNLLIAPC

SH2B (SH2B1) = target: T10, SH2B (SH2B1) (Homo sapiens, UniProt Q9NRF2)
T10 construct: made in house; host or cells: HEK293 (transient transfection), unpurified extract

SHB = target: T11, SHB (Homo sapiens, UniProt Q15464)
T11 construct: made in house; host or cells: HEK293 (transient transfection), unpurified extract
T11 sequence (Q15464 whole entry): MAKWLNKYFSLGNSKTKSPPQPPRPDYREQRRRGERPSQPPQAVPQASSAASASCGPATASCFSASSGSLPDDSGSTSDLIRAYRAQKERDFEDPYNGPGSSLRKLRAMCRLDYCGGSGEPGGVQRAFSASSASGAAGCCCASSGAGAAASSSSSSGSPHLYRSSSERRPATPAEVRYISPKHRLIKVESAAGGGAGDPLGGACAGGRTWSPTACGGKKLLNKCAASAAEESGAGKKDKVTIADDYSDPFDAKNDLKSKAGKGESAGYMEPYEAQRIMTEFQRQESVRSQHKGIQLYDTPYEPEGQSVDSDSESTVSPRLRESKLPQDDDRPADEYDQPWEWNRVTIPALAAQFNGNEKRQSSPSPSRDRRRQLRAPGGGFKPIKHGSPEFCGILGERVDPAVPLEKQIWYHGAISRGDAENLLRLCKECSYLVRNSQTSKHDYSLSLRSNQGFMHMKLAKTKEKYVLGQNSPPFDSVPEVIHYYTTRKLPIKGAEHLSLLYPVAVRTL

Structure (SMILES): CC[C@H](C)[C@H](NC(=O)[C@H](Cc1ccc(OP(=O)(O)O)cc1)NC(=O)[C@H](CO)NC(C)=O)C(=O)N[C@@H](CC(N)=O)C(=O)N[C@H](C(=O)N1CCC[C@H]1C(=O)N[C@@H](Cc1ccccc1)C(=O)N[C@H](C(=O)N[C@@H](CO)C(N)=O)[C@@H](C)O)C(C)C (Ac-S[pY]INVPFTS-NH2)
- Kd (GRB2): 69.4 ± 19.4 nM

Structure (SMILES): CC[C@H](C)[C@H](NC(=O)[C@@H](NC(=O)[C@H](C)NC(=O)[C@H](Cc1ccc(OP(=O)(O)O)cc1)NC(=O)[C@@H](NC(=O)[C@@H]1CCCN1C(=O)[C@H](CCC(=O)O)NC(=O)[C@@H]1CCCN1C(=O)[C@H](CO)NC(=O)[C@H](C)NC(C)=O)[C@@H](C)CC)[C@@H](C)O)C(=O)N[C@@H](CC(=O)O)C(=O)N[C@@H](Cc1ccccc1)C(=O)N[C@@H](CC(=O)O)C(N)=O [Ac-ASPEPIpYATIDFD-NH2]
- Kd (PTPN11(SH2dom.C-term.)): 403 ± 198 nM

Structure (SMILES): CC(=O)N[C@@H](CCC(=O)O)C(=O)N[C@@H](CC(=O)O)C(=O)N[C@@H](CO)C(=O)N[C@@H](Cc1ccccc1)C(=O)N[C@@H](CC(C)C)C(=O)N[C@@H](CCC(N)=O)C(=O)N[C@@H](CCCNC(=N)N)C(=O)N[C@@H](Cc1ccc(OP(=O)(O)O)cc1)C(=O)N[C@@H](CO)C(=O)N[C@@H](CO)C(=O)N[C@@H](CC(=O)O)C(=O)N1CCC[C@H]1C(=O)N[C@H](C(N)=O)[C@@H](C)O [Ac-EDSFLQRpYSSDPT-NH2]
- Kd (CBLB): 373 ± 114 nM
- Kd (CBLC): 146 ± 52 nM

Structure (SMILES): CC(=O)N[C@@H](CCCCN)C(=O)N1CCC[C@H]1C(=O)N[C@@H](Cc1ccccc1)C(=O)N[C@@H](Cc1ccc(OP(=O)(O)O)cc1)C(=O)N[C@H](C(=O)N[C@@H](CC(N)=O)C(=O)N[C@H](C(=O)N[C@@H](CCC(=O)O)C(=O)N[C@@H](Cc1ccccc1)C(N)=O)C(C)C)C(C)C [Ac-KPFpYVNVEF-NH2] (Ac-KPF[pY]VNVEF-NH2)
- Kd (GRAP): 21.3 ± 4.83 nM
- Kd (SRMS): 23600 ± 3030 nM

Structure (SMILES): CC[C@H](C)[C@H](NC(=O)[C@@H](NC(=O)[C@H](CC(C)C)NC(=O)[C@H](CO)NC(=O)[C@H](CCCCN)NC(C)=O)[C@@H](C)O)C(=O)N[C@@H](Cc1ccc(OP(=O)(O)O)cc1)C(=O)N[C@@H](C)C(=O)N[C@@H](CCC(N)=O)C(=O)N[C@H](C(=O)N[C@@H](CCC(N)=O)C(=O)N[C@@H](CCCCN)C(N)=O)C(C)C [Ac-KSLTIpYAQVQK-NH2] (Ac-KSLTI[pY]AQVQK-NH2)
- Kd (SH2D1B): 0.14 ± 0.03 nM

Structure (SMILES): CC(=O)N1CCC[C@H]1C(=O)N[C@@H](CCC(=O)O)C(=O)NCC(=O)N[C@@H](CC(=O)O)C(=O)N[C@@H](Cc1ccc(OP(=O)(O)O)cc1)C(=O)N[C@@H](CCC(=O)O)C(=O)N[C@@H](CCC(=O)O)C(=O)N[C@H](C(=O)N[C@@H](CC(C)C)C(=O)N[C@@H](CCC(=O)O)C(N)=O)C(C)C [Ac-PEGDpYEEVLE-NH2] (Ac-PEGD[pY]EEVLE-NH2)
- Kd (LYN): 765 ± 141 nM
- Kd (FGR): 1820 ± 510 nM

Structure (SMILES): CC[C@H](C)[C@H](NC(=O)[C@H](CC(N)=O)NC(=O)[C@@H](NC(=O)[C@H](Cc1ccc(OP(=O)(O)O)cc1)NC(=O)[C@H](CCC(=O)O)NC(=O)CNC(=O)[C@@H]1CCCN1C(=O)[C@H](CO)NC(C)=O)C(C)C)C(=O)N[C@@H](CCC(=O)O)C(=O)N[C@@H](Cc1ccccc1)C(=O)NCC(N)=O [Ac-SPGEpYVNIEFG-NH2]
- Kd (SH2B (SH2B1)): 4460 ± 615 nM
- Kd (SHB): 6030 ± 1090 nM
